pIC50: −log10 of the molar value. “And” between values parts separate entries of the source, which are not always exact repeats. Equal values may be shown once.
Test system: 935938-334-R-J1-PDC spheroids with HUVEC/MSC, viability
Test: Anticancer human tumor 935938-334-R-J1-PDC patient-derived small intestine adenocarcinoma cell line growth inhibition [PI3K]
Details: for viability, T/C: stronger effect = lower value
Procedure, shortened: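 Multi-cell spheroids combine tumor cells with HUVEC and human MSCs, treated with targeted agents alone or with inavolisib, alpelisib, duvelisib or copanlisib. Concentrations fall in half-log steps from at or near clinical Cmax, or from 10 microM where Cmax is unknown; viability read-out.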

[1] = curve of first compound, second compound 0.00316 µM
[2] = curve of first compound, second compound 0.01 µM
[3] = curve of first compound, second compound 0.0316 µM
[4] = curve of first compound, second compound 0.1 µM
[5] = curve of first compound, second compound 0.316 µM
[6] = curve of first compound, second compound 1 µM
[7] = second compound 0.00316 µM, first compound 0.0316 µM
[8] = second compound 0.00316 µM, first compound 0.1 µM
[9] = second compound 0.01 µM, first compound 0.0316 µM
[10] = second compound 0.01 µM, first compound 0.1 µM
[11] = second compound 0.0316 µM, first compound 0.0316 µM
[12] = second compound 0.0316 µM, first compound 0.1 µM
[13] = second compound 0.1 µM, first compound 0.0316 µM
[14] = second compound 0.1 µM, first compound 0.1 µM
[15] = second compound 0.316 µM, first compound 0.0316 µM
[16] = second compound 0.316 µM, first compound 0.1 µM
[17] = second compound 1 µM, first compound 0.0316 µM
[18] = second compound 1 µM, first compound 0.1 µM
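Further: compound exposure lasted seven days before viability was read.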
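Wherever viability, T/C is given: percent of vehicle DMSO treated spheroid viability so 100% = untreated.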

For `Cn1nccc1Nc1nccc(-c2ccn(C(CO)c3ccc(Cl)c(F)c3)c(=O)c2)n1` (stereo unspecified) + COc1c(OCCCN2CCOCC2)ccc2c3n(c(=NC(=O)c4cnc(N)nc4)nc12)CCN3, the pIC50 [1] was 5.86, the pIC50 [2] was 5.82 and the pIC50 [3] was 6.25. For the same compound, the pIC50 [4] was > 7.50, the pIC50 [5] was > 7.50 and the pIC50 [6] was > 7.50. For the same compound, the viability, T/C [7] was 81.5%, the viability, T/C [8] was 99.5% and the viability, T/C (second compound 0.00316 µM, first compound 0.316 µM) was 54.7%. It also gave a viability, T/C (second compound 0.00316 µM, first compound 1 µM) of 58.4%, a viability, T/C (second compound 0.00316 µM, first compound 3.16 µM) of 41.4% and a viability, T/C (second compound 0.00316 µM, first compound 10 µM) of 25.2%. It also gave a viability, T/C [9] of 85.7%, a viability, T/C [10] of 77.8% and a viability, T/C (second compound 0.01 µM, first compound 0.316 µM) of 68.9%. It also gave a viability, T/C (second compound 0.01 µM, first compound 1 µM) of 55.6%, a viability, T/C (second compound 0.01 µM, first compound 3.16 µM) of 39.9% and a viability, T/C (second compound 0.01 µM, first compound 10 µM) of 28%. The viability, T/C [11] was 58.8%, the viability, T/C [12] was 76.7% and the viability, T/C (second compound 0.0316 µM, first compound 0.316 µM) was 49.2%. The viability, T/C (second compound 0.0316 µM, first compound 1 µM) was 46.1%, the viability, T/C (second compound 0.0316 µM, first compound 3.16 µM) was 33.5% and the viability, T/C (second compound 0.0316 µM, first compound 10 µM) was 28%. The viability, T/C [13] was 49.4%, the viability, T/C [14] was 39.6% and the viability, T/C (second compound 0.1 µM, first compound 0.316 µM) was 40.1%. It also gave a viability, T/C (second compound 0.1 µM, first compound 1 µM) of 28%, a viability, T/C (second compound 0.1 µM, first compound 3.16 µM) of 18.1% and a viability, T/C (second compound 0.1 µM, first compound 10 µM) of 20.6%. For the same compound, the viability, T/C [15] was 36.4%, the viability, T/C [16] was 32% and the viability, T/C (second compound 0.316 µM, first compound 0.316 µM) was 22.3%. It also gave a viability, T/C (second compound 0.316 µM, first compound 1 µM) of 22.4%, a viability, T/C (second compound 0.316 µM, first compound 3.16 µM) of 21.7% and a viability, T/C (second compound 0.316 µM, first compound 10 µM) of 23%. For the same compound, the viability, T/C [17] was 34.6%, the viability, T/C [18] was 27% and the viability, T/C (second compound 1 µM, first compound 0.316 µM) was 25.1%. The viability, T/C (second compound 1 µM, first compound 1 µM) was 23.9%, the viability, T/C (second compound 1 µM, first compound 3.16 µM) was 19.5% and the viability, T/C (second compound 1 µM, first compound 10 µM) was 17.9%.
`CC1(C)CCC(Nc2ncc(C(F)(F)F)c(-c3c[nH]c4c(P(C)(C)=O)c(C#N)ccc34)n2)CN1` (stereo unspecified) was tested, and the viability, T/C (compound 0.0316 µM) was 43.3% [middle of 4 runs], the viability, T/C (compound 0.1 µM) was 39.1% [middle of 4 runs] and the viability, T/C (compound 0.316 µM) was 34.6% [middle of 4 runs]. The viability, T/C (compound 1 µM) was 38.5% and 38.1% and 35.8% (2×), the viability, T/C (compound 3.16 µM) was 35.1% [middle of 4 runs] and the viability, T/C (compound 10 µM) was 7.76% [middle of 4 runs]. The pIC50 (curve of compound) was > 7.50.
For `CC(=O)c1c(C)c2cnc(Nc3ccc(N4CCNCC4)cn3)nc2n(C2CCCC2)c1=O`, the viability, T/C (compound 0.001 µM) was 93.6% [middle of 4 runs], the viability, T/C (compound 0.00316 µM) was 89.5% [middle of 4 runs] and the viability, T/C (compound 0.01 µM) was 87.7% [middle of 4 runs]. For the same compound, the viability, T/C (compound 0.0316 µM) was 92.3% [middle of 4 runs] and the pIC50 (curve of compound) was < 7.00 and 7.25.
`CC(C)n1nc(-c2ccc3oc(N)nc3c2)c2c(N)ncnc21` + COc1c(OCCCN2CCOCC2)ccc2c3n(c(=NC(=O)c4cnc(N)nc4)nc12)CCN3 was tested, and the pIC50 [1] was < 7.00, the pIC50 [2] was 7.09 and the pIC50 [3] was 7.58. For the same compound, the pIC50 [4] was > 9.50, the pIC50 [5] was > 9.50 and the pIC50 [6] was > 9.50. The viability, T/C (second compound 0.00316 µM, first compound 0.000316 µM) was 86.9%, the viability, T/C (second compound 0.00316 µM, first compound 0.001 µM) was 110% and the viability, T/C (second compound 0.00316 µM, first compound 0.00316 µM) was 106%. For the same compound, the viability, T/C (second compound 0.00316 µM, first compound 0.01 µM) was 99.9%, the viability, T/C [7] was 85.3% and the viability, T/C [8] was 54.8%. The viability, T/C (second compound 0.01 µM, first compound 0.000316 µM) was 94.5%, the viability, T/C (second compound 0.01 µM, first compound 0.001 µM) was 83.2% and the viability, T/C (second compound 0.01 µM, first compound 0.00316 µM) was 92.6%. It also gave a viability, T/C (second compound 0.01 µM, first compound 0.01 µM) of 89.5%, a viability, T/C [9] of 79.6% and a viability, T/C [10] of 43.4%. For the same compound, the viability, T/C (second compound 0.0316 µM, first compound 0.000316 µM) was 83.9%, the viability, T/C (second compound 0.0316 µM, first compound 0.001 µM) was 107% and the viability, T/C (second compound 0.0316 µM, first compound 0.00316 µM) was 92.7%. The viability, T/C (second compound 0.0316 µM, first compound 0.01 µM) was 68%, the viability, T/C [11] was 50.2% and the viability, T/C [12] was 35.1%. It also gave a viability, T/C (second compound 0.1 µM, first compound 0.000316 µM) of 45.1%, a viability, T/C (second compound 0.1 µM, first compound 0.001 µM) of 59.4% and a viability, T/C (second compound 0.1 µM, first compound 0.00316 µM) of 39.2%. It also gave a viability, T/C (second compound 0.1 µM, first compound 0.01 µM) of 48.2%, a viability, T/C [13] of 36.9% and a viability, T/C [14] of 34.8%. The viability, T/C (second compound 0.316 µM, first compound 0.000316 µM) was 36.3%, the viability, T/C (second compound 0.316 µM, first compound 0.001 µM) was 38.9% and the viability, T/C (second compound 0.316 µM, first compound 0.00316 µM) was 34.5%. The viability, T/C (second compound 0.316 µM, first compound 0.01 µM) was 31.1%, the viability, T/C [15] was 42.5% and the viability, T/C [16] was 31.1%. For the same compound, the viability, T/C (second compound 1 µM, first compound 0.000316 µM) was 42.6%, the viability, T/C (second compound 1 µM, first compound 0.001 µM) was 37.2% and the viability, T/C (second compound 1 µM, first compound 0.00316 µM) was 37.1%. For the same compound, the viability, T/C (second compound 1 µM, first compound 0.01 µM) was 32.5%, the viability, T/C [17] was 26.5% and the viability, T/C [18] was 33.4%.

Reference: PubChem BioAssay AID1963966 (Molecular Pharmacology Branch, DTP, NCI, 2024)
